This test addresses T1, human lung fibroblast collagenase (Homo sapiens, UniProt P03956).
T1 construct: from culture supernatants from the human lung fibroblast cell line, WI-38; endogenous in cells; host or cells: WI-38 human lung fibroblast cell line (culture supernatant)
T1 sequence (P03956 100-469): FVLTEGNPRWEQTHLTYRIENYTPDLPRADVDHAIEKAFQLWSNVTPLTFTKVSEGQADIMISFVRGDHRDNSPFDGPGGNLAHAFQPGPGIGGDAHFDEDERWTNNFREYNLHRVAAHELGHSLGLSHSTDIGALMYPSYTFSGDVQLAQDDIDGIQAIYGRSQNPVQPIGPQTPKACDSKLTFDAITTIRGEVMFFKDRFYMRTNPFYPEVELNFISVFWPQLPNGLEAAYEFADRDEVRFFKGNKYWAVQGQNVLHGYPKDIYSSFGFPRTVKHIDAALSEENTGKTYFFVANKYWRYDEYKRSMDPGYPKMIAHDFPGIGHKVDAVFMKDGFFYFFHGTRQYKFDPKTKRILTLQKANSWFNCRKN
The test can be described thus: Collagenase inhibitor assay, human lung fibroblast collagenase (14C-collagen fibril degradation). The following applies: collagenase from WI-38 culture supernatants. The class given is biochemical. Here is the method: The test is performed essentially as in Cawston and Barrett, Anal. Biochem. 99, 340-345 (1979). Compounds for testing are dissolved in methanol and added to collagenase (purified from cultures of rabbit bone or from culture supernatants from the human lung fibroblast cell line, WI-38) in buffer. In order to ensure that thiol collagenase inhibitors remained unoxidised, β-mercaptoethanol may be incorporated in the methanol solvent and/or the diluent buffers. The minimal direct effect of β-mercaptoethanol on the degradation of collagen by human or rabbit collagenase is controlled for. After a 5-15 min pre-incubation at 37° C., the assay tubes are cooled to 4° C. and ^14 C-acetylated rat skin […] collagen is added. The assay tubes are incubated at 37° C. overnight. The ^14 C-collagen forms insoluble fibrils which are the substrate for the enzyme.
To terminate the assay, the assay tubes are spun at 12000 rpm for 15 min. Undigested ^14 C-collagen is pelleted, while digested ^14 C-collagen is found as soluble peptides in the supernatant. A sample of the supernatant is taken for liquid scintillation counting.
The activity of collagenase inhibitors (IC50 : 50% inhibitory concentration) is expressed as that concentration of compound that inhibits a known (standard) concentration of enzyme by 50%.

The mark [1] stands for this setting: * = +mercaptoethanol, read-out: IC50, Inhibition of human lung fibroblast collagenase, +mercaptoethanol.
[2] abbreviates: without mercaptoethanol, read-out: IC50, Inhibition of human lung fibroblast collagenase.

Where two headings read alike, the source gives them in different places.

The text below walks through data of patent US5124322A, “Dipeptide collagenase inhibitors” (Beecham Group p.l.c., priority 1988, dated 1992).

Broadly, the IC50 is the concentration that gives 50% inhibition.

As to “4-Chloro-2-mercapto-N-[2-(3-indolyl)-1-(S)-(methyl-aminocarbonyl)ethyl]-α-(2-methylpropyl)phenylpropanamide [Example 8]”, the IC50 by setting is: under setting [1], 190 nM; under setting [2], 1500 nM.
As to `CNC(=O)[C@H](Cc1ccc(OC)cc1)NC(=O)C(Cc1ccc(Cl)cc1S)CC(C)C` (stereo partly drawn) [Example 5, 4-Chloro-2-mercapto-N-[2-(4-methoxyphenyl)-1-(S)-(methylaminocarbonyl)ethyl]-α-(2-methylpropyl)phenylpropanamide], the IC50 reads like this: under setting [1], 250 nM; under setting [2], 1800 nM.
